Experimental data reported in patent US12421253B2 (Mirati Therapeutics, Inc., priority 2020, dated 2025).

Tests used:
[1] = target: T1, KRas^G12R (Homo sapiens, UniProt P01116, G12R); assay: KRas binding assay (TR-FRET displacement of Cy5 labelled tracer)
T1 construct: […]; biotin (biotinylated); purchased Accelegan Inc

[2] = target: T2, KRas^G12V (Homo sapiens, UniProt P01116, G12V); assay: as above
T2 construct: […]; biotin (biotinylated); purchased Accelegan Inc

[3] = target: T3, KRas^G12D (Homo sapiens, UniProt P01116, G12D); assay: as above
T3 construct: […]; biotin (biotinylated); purchased Accelegan Inc
T3 sequence (P01116 1-169 isoform P01116-2 G12D): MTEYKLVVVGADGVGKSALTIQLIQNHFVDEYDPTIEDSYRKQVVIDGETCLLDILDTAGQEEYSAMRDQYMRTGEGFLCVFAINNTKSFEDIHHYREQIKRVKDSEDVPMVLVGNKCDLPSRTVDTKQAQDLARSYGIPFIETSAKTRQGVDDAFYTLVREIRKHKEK

[4] = test system: MKN1 cells, pERK; assay: Inhibition of KRas phosphorylation of ERK (Cisbio HTRF Advanced pERK assay); format: cell-based; conditions: Homo sapiens, MKN-1, 3 h, read-out: Inhibition (HTRF IC50 nM) of KRas-mediated Phosphorylation of ERK, MKN1
Experimental: (§1) Inhibition of KRas Phosphorylation of ERK (HTRF) by Exemplary Compounds of Formula (I)
(§2) Cisbio HTRF Advanced pERK Assay Catalog #64AERPEH
(§3) • Day 1: Seed 6,000 cells/well −25 μl/well in 384-well white solid bottom plate; RPM1_10% FBS. […] To harvest cells from flask using 0.05% Trypsin/EDTA solution. Add 10 mL of media to stop trypsinizing. Pipette the cells into a conical bottom 50 mL centrifuge tube and centrifuge 5 min×1000 rpm. • 2. Re-suspend the cell pellet in media, take a cell count, and then adjust the cell density using fresh media. • 3. Seed 6,000 cells into cell culture plate with […]. The • 4. Incubate cell plate overnight in a 37° C., 5% CO2 incubator. Compound Titrations • 1. Use Tecan to complete the compound addition. Compounds start from 10 uM top, 3-fold dilution, and 10 doses. The final DMSO concentration is 0.8%. Dispensed 0.2 uM Trametinib as Min control. • 2. Incubate cell plate for 3 hrs in the incubator. Detection with Cisbio pERK HTRF Kit • 1. Dilute 1 volume of 4× lysis buffer with 3 volumes of deionized water. Then, add 100× the blocking reagent. Keep lysis buffer on the ice. • 2. At the end of the compound treatment, flick-off the media. • 3. Add 35 μL of lysis buffer per well using a Multidrop Combi. Then place on a plate agitator shaking at 300 rpm at 4° C. for 40 mins. • 4. Make up the HTRF antibody buffer. For each assay plate, mix 50 μL of d2-conjugate antibody with 950 μL of detection buffer. Similarly, mix 50 μL of Cryptate antibody with 950 μL of detection buffer. Then mix the two diluted antibodies together. • 5. Dispense 3.4 μL the antibody buffer to wells of an empty assay plate. Seal the plate and centrifuge plate 30 sec×1000 rpm. • 6. At the end of the 4° C. lysis, centrifuge the lysate plates 3 mins×1500 rpm. • 7. Use the Bravo to transfer 13.6 μL of lysate from cell culture plate to assay plate. Then incubate assay plate for 2 hrs at room temperature. • 8. At the end of incubation, read plate on the Envision after centrifuging plate 30 sec×1000 rpm.

[5] = test system: H727 cells, pERK; assay: as above; format: cell-based; conditions: Homo sapiens, NCI-H727, 3 h, read-out: Inhibition (HTRF IC50 nM) of KRas-mediated Phosphorylation of ERK, H727
Experimental: as §1, §2, §3

[6] = test system: ASPC1 cells, pERK; assay: as above; format: cell-based; conditions: Homo sapiens, ASPC1, 3 h, AsPC-1 cells, read-out: Inhibition (HTRF IC50 nM) of KRas-mediated Phosphorylation of ERK, AsPC-1
Experimental: as §1, §2, §3

[7] = test system: PSN1 cells, pERK; assay: as above; format: cell-based; conditions: Homo sapiens, PSN1, 3 h, read-out: Inhibition (HTRF IC50 nM) of KRas-mediated Phosphorylation of ERK, PSN1
Experimental: as §1, §2, §3

T2 sequence (P01116 1-169 isoform P01116-2 G12V): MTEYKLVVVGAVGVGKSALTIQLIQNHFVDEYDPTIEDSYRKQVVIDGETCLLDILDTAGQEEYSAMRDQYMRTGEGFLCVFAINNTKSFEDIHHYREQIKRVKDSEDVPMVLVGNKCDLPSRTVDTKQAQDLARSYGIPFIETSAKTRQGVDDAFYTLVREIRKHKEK
T1 sequence (P01116 1-169 isoform P01116-2 G12R): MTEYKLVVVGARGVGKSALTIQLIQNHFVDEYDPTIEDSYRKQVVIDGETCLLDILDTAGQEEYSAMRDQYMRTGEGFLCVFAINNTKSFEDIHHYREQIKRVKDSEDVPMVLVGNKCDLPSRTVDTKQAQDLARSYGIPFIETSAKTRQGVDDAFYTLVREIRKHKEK

Structure (SMILES) | IC50 [1] [nM] | IC50 [2] [nM] | IC50 [3] [nM] | IC50 [4] [nM] | IC50 [5] [nM] | IC50 [6] [nM] | IC50 [7] [nM]
CCc1c(F)ccc2cc(O)cc(N3CCc4c(nc(OC[C@@]56CCCN5C[C@H](F)C6)nc4N4C[C@H]5C[C@H](O)C[C@H]5C4)C3)c12 [Example 183, (3aR,5R,6aS)-2-(7-(8-ethyl-7-fluoro-3-hydroxynaphthalen-1-yl)-2-(((2R,7aS)-2-fluorohexahydro-1H-pyrrolizin-7a-yl)methoxy)-5,6,7,8-tetrahydropyrido[3,4-d]pyrimidin-4-yl)octahydrocyclopenta[c]pyrrol-5-ol] | 23 | 54 | 150 | 498 | 2920 | 1540 | ≥ 10000
CCc1c(F)ccc2cc(O)cc(N3CCc4c(nc(OC[C@@]56CCCN5C[C@H](F)C6)nc4N4C[C@H]5CC[C@@H](O)[C@H]5C4)C3)c12 [Example 185, (3aR,4R,6aS)-2-(7-(8-ethyl-7-fluoro-3-hydroxynaphthalen-1-yl)-2-(((2R,7aS)-2-fluorotetrahydro-1H-pyrrolizin-7a(5H)-yl)methoxy)-5,6,7,8-tetrahydropyrido[3,4-d]pyrimidin-4-yl)octahydrocyclopenta[c]pyrrol-4-ol] | 46 | 52 | 143 | 1540 | 3720 | 5120 | ≥ 10000
CCc1c(F)ccc2cc(O)cc(N3CCc4c(nc(OC[C@@]56CCCN5C[C@H](F)C6)nc4N4C[C@H]5C[C@@H](O)C[C@H]5C4)C3)c12 [Example 184, (3aR,5S,6aS)-2-(7-(8-ethyl-7-fluoro-3-hydroxynaphthalen-1-yl)-2-(((2R,7aS)-2-fluorohexahydro-1H-pyrrolizin-7a-yl)methoxy)-5,6,7,8-tetrahydropyrido[3,4-d]pyrimidin-4-yl)octahydrocyclopenta[c]pyrrol-5-ol] | 11 | 12 | 23 | 652 | 796 | 770 | ≥ 10000
CCc1c(F)ccc2cc(O)cc(N3CCc4c(nc(OCC5(CN(C)C)CC5)nc4N4CCCC5(CNS(=O)(=O)N5)C4)C3)c12 (centres unmarked) [Example 202, 7-(2-((1-((dimethylamino)methyl)cyclopropyl)methoxy)-7-(8-ethyl-7-fluoro-3-hydroxynaphthalen-1-yl)-5,6,7,8-tetrahydropyrido[3,4-d]pyrimidin-4-yl)-2-thia-1,3,7-triazaspiro[4.5]decane 2,2-dioxide] | 7 | ≤ 2 | ≤ 2 | 101 | 1350 | 543 | 3900
Oc1cc(N2CCc3c(nc(OC[C@@]45CCCN4C[C@H](F)C5)nc3N3CC4CC(O)C(C4)C3)C2)c2c(Cl)c(F)ccc2c1 (stereo partly drawn) [Example 227, 3-(7-(8-chloro-7-fluoro-3-hydroxynaphthalen-1-yl)-2-(((2R,7aS)-2-fluorohexahydro-1H-pyrrolizin-7a-yl)methoxy)-5,6,7,8-tetrahydropyrido[3,4-d]pyrimidin-4-yl)-3-azabicyclo[3.2.1]octan-6-ol] | 6 | 4 | 20 | 524 | 1300 | 4050 | 7050

These reach a lower IC50 [1]. Values come first.

IC50 [1] [nM] | IC50 [2] [nM] | IC50 [3] [nM] | IC50 [4] [nM] | IC50 [5] [nM] | IC50 [6] [nM] | IC50 [7] [nM] | Structure (SMILES)
≤ 2 | ≤ 2 | ≤ 2 | 90 | 191 | 228 | ≥ 10000 | CCc1c(F)ccc2cc(O)cc(N3CCc4c(nc(OC[C@@]56CCCN5C[C@H](F)C6)nc4N4CCCc5nc(N)sc5C4)C3)c12 [Example 181, 4-(4-(2-amino-7,8-dihydro-4H-thiazolo[5,4-c]azepin-5(6H)-yl)-2-(((2R,7aS)-2-fluorohexahydro-1H-pyrrolizin-7a-yl)methoxy)-5,6-dihydropyrido[3,4-d]pyrimidin-7(8H)-yl)-5-ethyl-6-fluoronaphthalen-2-ol]
5 | 3 | 5 | 112 | 1750 | 1090 | ≥ 10000 | Oc1cc(N2CCc3c(nc(OC[C@@]45CCCN4C[C@H](F)C5)nc3N3CCOCC(n4cccn4)C3)C2)c2c(Cl)c(F)ccc2c1 (stereo partly drawn) [Example 230, 4-(4-(6-(1H-pyrazol-1-yl)-1,4-oxazepan-4-yl)-2-(((2R,7aS)-2-fluorohexahydro-1H-pyrrolizin-7a-yl)methoxy)-5,6-dihydropyrido[3,4-d]pyrimidin-7(8H)-yl)-5-chloro-6-fluoronaphthalen-2-ol]
3 | 3 | 10 | 203 | 957 | 1300 | 7580 | Oc1cc(N2CCc3c(nc(OC[C@@]45CCCN4C[C@H](F)C5)nc3N3CC4CC(O)C(C4)C3)C2)c2c(Br)c(F)ccc2c1 (stereo partly drawn) [Example 215, 3-(7-(8-bromo-7-fluoro-3-hydroxynaphthalen-1-yl)-2-(((2R,7aS)-2-fluorohexahydro-1H-pyrrolizin-7a-yl)methoxy)-5,6,7,8-tetrahydropyrido[3,4-d]pyrimidin-4-yl)-3-azabicyclo[3.2.1]octan-6-ol]
3 | 3 | 5 | 85 | 871 | 661 | 6380 | OCC1COCCN(c2nc(OC[C@@]34CCCN3C[C@H](F)C4)nc3c2CCN(c2cc(O)cc4ccc(F)c(Cl)c24)C3)C1 (stereo partly drawn) [Example 73, 5-chloro-6-fluoro-4-(2-(((2R,7aS)-2-fluorohexahydro-1H-pyrrolizin-7a-yl)methoxy)-4-(6-(hydroxymethyl)-1,4-oxazepan-4-yl)-5,6-dihydropyrido[3,4-d]pyrimidin-7(8H)-yl)naphthalen-2-ol]
3 | ≤ 2 | ≤ 2 | 11 | 29 | 24 | ≥ 10000 | CCc1c(F)ccc2cc(O)cc(N3CCc4c(nc(OC[C@@]56CCCN5C[C@H](F)C6)nc4N4CCCn5nc(C(=O)N(C)C)c(Cl)c5C4)C3)c12 [Example 192, 3-chloro-5-(7-(8-ethyl-7-fluoro-3-hydroxynaphthalen-1-yl)-2-(((2R,7aS)-2-fluorotetrahydro-1H-pyrrolizin-7a(5H)-yl)methoxy)-5,6,7,8-tetrahydropyrido[3,4-d]pyrimidin-4-yl)-N,N-dimethyl-5,6,7,8-tetrahydro-4H-pyrazolo[1,5-a][1,4]diazepine-2-carboxamide]
≤ 2 | ≤ 2 | ≤ 2 | 62 | 651 | 976 | ≥ 10000 | Oc1cc(N2CCc3c(nc(OC[C@@]45CCCN4C[C@H](F)C5)nc3N3CCCC4(CC(O)C4)C3)C2)c2c(Br)c(F)ccc2c1 (stereo partly drawn) [Example 224, 6-(7-(8-bromo-7-fluoro-3-hydroxynaphthalen-1-yl)-2-(((2R,7aS)-2-fluorohexahydro-1H-pyrrolizin-7a-yl)methoxy)-5,6,7,8-tetrahydropyrido[3,4-d]pyrimidin-4-yl)-6-azaspiro[3.5]nonan-2-ol]
